Experimental data reported in the supplement of paper PMC10331698.
± gives the standard deviation of the averaged measurements.

Legend:
Assay in all cases: level (log10 ratio to DMSO vehicle control); higher = higher biomarker level / cell amount than vehicle control
[1] = compound: O=C(O)C(F)(OC(F)(F)C(F)(OC(F)(F)C(F)(OC(F)(F)C(F)(F)C(F)(F)F)C(F)(F)F)C(F)(F)F)C(F)(F)F [Perfluoro-(2,5,8-trimethyl-3,6,9-trioxadodecanoic)acid] (in DMSO)
Protocol: (§1)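 BioMAP Diversity Plus panel of 12 human primary cell co-culture systems (3C, 4H, LPS, SAg, BT, BF4T, BE3C, CASM3C, HDF3CGF, KF3CT, MyoF, Mphg). Compounds were added 1 h before stimulation and left for 24 h (MyoF 48 h; BT 72 h for soluble read-outs or 6 d for IgG). Biomarkers were read by ELISA, cytotoxicity by SRB, PBMC viability and proliferation by Alamar Blue. Each well value was divided by the mean of 8 DMSO control wells on the same plate and log10 transformed; duplicate blinded samples were tested at 4 concentrations.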

Perfluorononanoic acid = compound: O=C(O)C(F)(F)C(F)(F)C(F)(F)C(F)(F)C(F)(F)C(F)(F)C(F)(F)C(F)(F)F [Perfluorononanoic acid] (in DMSO)
Protocol: as §1

[2] = compound: O=C(O)C(F)(OC(F)(F)C(F)(F)C(F)(F)F)C(F)(F)F [Ammonium perfluoro-2-methyl-3-oxahexanoate] (in Water)
Protocol: as §1

[3] = compound: O=C(O)C(F)(F)OC(F)(F)C(F)(F)OC(F)(F)C(F)(F)OC(F)(F)C(F)(F)C(F)(F)C(F)(F)F [Perfluoro-3,6,9-trioxatridecanoic acid] (in DMSO); conditions: 6700 nM
Protocol: as §1

[4] = compound: OCCC(F)(F)C(F)(F)C(F)(F)C(F)(F)F [4:2 Fluorotelomer alcohol] (in DMSO)
Protocol: as §1

[5] = compound: C[C@@H]1C[C@H]2[C@@H]3CCC4=CC(=O)C=C[C@]4(C)[C@@]3(F)[C@@H](O)C[C@]2(C)[C@@]1(O)C(=O)COP(=O)(O)O [Dexamethasone sodium phosphate] (in DMSO)
Protocol: as §1

Perfluoroundecanoic acid = compound: O=C(O)C(F)(F)C(F)(F)C(F)(F)C(F)(F)C(F)(F)C(F)(F)C(F)(F)C(F)(F)C(F)(F)C(F)(F)F [Perfluoroundecanoic acid] (in DMSO); conditions: 6700 nM
Protocol: as §1

[6] = compound: OCC(F)(F)C(F)(F)C(F)(F)C(F)(F)C(F)(F)C(F)(F)CO [1H,1H,8H,8H-Perfluorooctane-1,8-diol] (in DMSO)
Protocol: as §1

Test System	level (log10) ([1]; 1100 nM)	level (log10) ([1]; 3300 nM)	level (log10) ([1]; 10000 nM)	level (log10) (Perfluorononanoic acid; 6700 nM)	level (log10) (Perfluorononanoic acid; 20000 nM)	level (log10) ([2]; 6700 nM)	level (log10) ([2]; 20000 nM)	level (log10) ([2]; 60000 nM)	level (log10) [3]	level (log10) ([4]; 6700 nM)	level (log10) ([4]; 20000 nM)	level (log10) ([4]; 60000 nM)	level (log10) ([5]; 1500 nM)	level (log10) ([5]; 4400 nM)	level (log10) ([5]; 13000 nM)	level (log10) ([5]; 40000 nM)	level (log10) (Perfluoroundecanoic acid)	level (log10) ([6]; 6700 nM)	level (log10) ([6]; 20000 nM)	level (log10) ([6]; 60000 nM)
LPS:CXCL8/IL-8	0.0045 ± 0.016	-0.0045 ± 0.0064	0.0095 ± 0.0021	0.024 ± 0.013	0.0355 ± 0.0092	0.023 ± 0.031	0.0895 ± 0.016	0.131 ± 0.017	-0.0465 ± 0.061	-0.0255 ± 0.015	-0.0005 ± 0.0078	-0.005 ± 0.024	0.026 ± 0.014	-0.017 ± 0.02	-0.0135 ± 0.025	-0.0475 ± 0.076	-0.04 ± 0.035	-0.0075 ± 0.011	-0.0305 ± 0.0064	-0.0125 ± 0.021
LPS:IL-1alpha	0.0135 ± 0.00071	-0.0305 ± 0.023	-0.005 ± 0.059	-0.0315 ± 0.0064	-0.03 ± 0.014	0.0325 ± 0.04	0.0475 ± 0.015	0.019 ± 0.062	-0.038 ± 0.013	-0.039 ± 0.055	-0.0135 ± 0.0021	-0.0205 ± 0.0078	-0.0215 ± 0.0035	-0.0475 ± 0.1	-0.0575 ± 0.035	-0.0835 ± 0.08	-0.103 ± 0.019	-0.0355 ± 0.049	-0.064 ± 0.016	-0.004 ± 0.017
LPS:M-CSF	-0.005 ± 0.02	0.0145 ± 0.035	0.022 ± 0.023	-0.001 ± 0.045	0.035 ± 0.024	-0.02 ± 0.024	-0.009 ± 0.016	-0.0045 ± 0.005	0.009 ± 0.018	-0.041 ± 0.027	0.005 ± 0.057	0.029 ± 0.044	-0.0225 ± 0.016	-0.0445 ± 0.039	-0.0265 ± 0.0078	-0.0515 ± 0.012	0.049 ± 0.0028	-0.0285 ± 0.019	-0.025 ± 0.017	-0.013 ± 0.048
LPS:SRB	-0.008 ± 0.0042	-0.0125 ± 0.005	-0.001 ± 0.0085	-0.0065 ± 0.00071	0.0045 ± 0.0078	-0.009 ± 0.0028	-0.0075 ± 0.00071	-0.009 ± 0.0014	0.008 ± 0.0071	-0.012 ± 0.0057	-0.0145 ± 0.0092	-0.006 ± 0.0014	0.008 ± 0.0085	-0.012 ± 0.0071	-0.003 ± 0.0099	0.006 ± 0.031	0.005 ± 0.0057	0.0005 ± 0.0092	-0.003 ± 0.0014	-0.0035 ± 0.023
LPS:sPGE2	0.0385 ± 0.032	0.011 ± 0.031	-0.012 ± 0.047	-0.0695 ± 0.00071	-0.144 ± 0.0064	0.093 ± 0.061	0.0575 ± 0.039	0.0765 ± 0.018	-0.0245 ± 0.013	-0.008 ± 0.025	-0.0115 ± 0.044	-0.0105 ± 0.025	-0.028 ± 0.028	-0.0525 ± 0.015	-0.121 ± 0.044	-0.155 ± 0.016	-0.0665 ± 0.044	-0.0255 ± 0.012	0.022 ± 0.0057	-0.0015 ± 0.016
LPS:sTNF-alpha	0.0035 ± 0.022	-0.001 ± 0.016	0.001 ± 0.02	-0.0115 ± 0.028	0.0115 ± 0.025	-0.068 ± 0.021	-0.0375 ± 0.043	-0.0225 ± 0.033	-0.019 ± 0.024	-0.008 ± 0.02	-0.01 ± 0.0071	0.0015 ± 0.0092	-0.083 ± 0.047	-0.0655 ± 0.032	-0.19 ± 0.038	-0.262 ± 0.032	-0.0415 ± 0.00071	-0.123 ± 0.074	-0.145 ± 0.041	-0.146 ± 0.018
SAg:CCL2/MCP-1	-0.0025 ± 0.018	-0.0055 ± 0.0035	0.0195 ± 0.025	-0.0015 ± 0.0035	0.0555 ± 0.013	-0.0245 ± 0.04	0.004 ± 0.017	0.0305 ± 0.059	-0.0125 ± 0.018	-0.009 ± 0.0014	0.006 ± 0.025	0.031 ± 0.089	-0.024 ± 0.031	-0.029 ± 0.013	-0.089 ± 0.0042	-0.07	-0.0155 ± 0.0035	-0.0075 ± 0.00071	-0.015 ± 0.0071	-0.0085 ± 0.00071
SAg:CD38	-0.0115 ± 0.0021	-0.011 ± 0.021	-0.005 ± 0.014	0.0155 ± 0.069	0.0205 ± 0.056	0.003 ± 0.011	0.008 ± 0.0085	-0.0055 ± 0.019	0.0175 ± 0.026	0.0085 ± 0.11	0.0295 ± 0.1	0.0235 ± 0.077	-0.014 ± 0.018	-0.027 ± 0.021	-0.037 ± 0.0028	-0.0215 ± 0.023	-0.0175 ± 0.022	-0.0105 ± 0.011	-0.003 ± 0.02	-0.013 ± 0.0028
SAg:CD40	-0.009 ± 0.0071	-0.0015 ± 0.0021	-0.0005 ± 0.019	-0.0285 ± 0.044	-0.057 ± 0.02	-0.019 ± 0.013	-0.017 ± 0.0014	-0.0555 ± 0.077	-0.0155 ± 0.043	-0.028 ± 0.059	-0.036 ± 0.037	-0.006 ± 0.068	-0.044 ± 0.0085	-0.072 ± 0.05	-0.0535 ± 0.03	-0.074 ± 0.081	-0.013 ± 0.0028	-0.024 ± 0.05	-0.0115 ± 0.064	-0.0525 ± 0.043
SAg:CD62E/E-Selectin	-0.02 ± 0.0014	-0.031 ± 0.02	0.008 ± 0.042	-0.01 ± 0.03	0.0315 ± 0.039	0.036 ± 0.0014	0.022 ± 0.013	0.057 ± 0.0028	-0.019 ± 0.057	-0.0125 ± 0.011	-0.001 ± 0.011	0.025 ± 0.016	-0.0615 ± 0.0021	-0.124 ± 0.015	-0.168 ± 0.059	-0.168 ± 0.03	0.034 ± 0.038	0.0005 ± 0.00071	-0.026 ± 0.0028	-0.016 ± 0.0042
SAg:CD69	-0.0135 ± 0.005	-0.015 ± 0.0042	-0.0095 ± 0.023	-0.035	-0.0335 ± 0.015	-0.046 ± 0.0071	-0.0265 ± 0.019	-0.0205 ± 0.005	-0.0065 ± 0.0021	-0.0265 ± 0.00071	-0.0115 ± 0.011	-0.0005 ± 0.0092	-0.025 ± 0.02	-0.054 ± 0.02	-0.0885 ± 0.03	-0.0865 ± 0.011	-0.0285 ± 0.018	-0.022 ± 0.031	-0.002 ± 0.0071	-0.0145 ± 0.015
SAg:CXCL8/IL-8	-0.0095 ± 0.028	-0.0265 ± 0.037	0.0195 ± 0.026	-0.0165 ± 0.029	0.0095 ± 0.036	0.103 ± 0.0085	0.099 ± 0.0085	0.167 ± 0.047	-0.023 ± 0.011	-0.017 ± 0.0071	-0.018 ± 0.016	0.018 ± 0.034	-0.0245 ± 0.039	-0.0475 ± 0.039	-0.097 ± 0.075	-0.137 ± 0.087	-0.021 ± 0.0028	-0.0205 ± 0.04	-0.0245 ± 0.019	0.0095 ± 0.035
SAg:CXCL9/MIG	-0.01 ± 0.017	0.008 ± 0.017	-0.0005 ± 0.016	0.005 ± 0.017	-0.004 ± 0.013	-0.006 ± 0.0085	0.001 ± 0.014	0.001 ± 0.028	-0.001 ± 0.0014	-0.0125 ± 0.0092	0.003 ± 0.0057	0.0105 ± 0.035	0.0095 ± 0.00071	-0.0065 ± 0.0035	-0.0125 ± 0.0035	-0.005 ± 0.0099	0.0005 ± 0.0064	-0.0055 ± 0.0021	0.0035 ± 0.0064	0.02 ± 0.0085
SAg:PBMC Cytotoxicity	0.002 ± 0.04	0.024 ± 0.027	-0.0095 ± 0.07	0.006 ± 0.018	0.015 ± 0.013	-0.011 ± 0.013	-0.024 ± 0.013	-0.0035 ± 0.0064	-0.003 ± 0.037	-0.021 ± 0.023	-0.0085 ± 0.0021	-0.0095 ± 0.005	-0.013 ± 0.054	0.003 ± 0.037	-0.05 ± 0.024	-0.0395 ± 0.019	0.006 ± 0.0028	-0.0045 ± 0.03	0.036 ± 0.062	0.0305 ± 0.033
SAg:Proliferation	0.009 ± 0.041	0.0425 ± 0.0035	0.0335 ± 0.016	0.0075 ± 0.056	0.0035 ± 0.0092	-0.0005 ± 0.028	-0.043 ± 0.028	-0.0265 ± 0.049	-0.0295 ± 0.042	-0.041 ± 0.042	-0.033 ± 0.0071	-0.0025 ± 0.032	-0.001 ± 0.034	0.0035 ± 0.0078	-0.0855 ± 0.005	-0.023 ± 0.0099	0.0125 ± 0.059	-0.0035 ± 0.033	0 ± 0.025	-0.0055 ± 0.039
SAg:SRB	-0.007 ± 0.0071	-0.013 ± 0.0042	-0.0015 ± 0.0021	-0.01 ± 0.0085	-0.002 ± 0.0099	-0.019 ± 0.0042	-0.01 ± 0.0014	-0.0285 ± 0.0021	0.0015 ± 0.013	-0.009 ± 0.0042	-0.013 ± 0.016	0.001 ± 0.0028	0.0105 ± 0.0092	0.0005 ± 0.005	0.005 ± 0.016	0.003 ± 0.025	0.0015 ± 0.0092	0.009 ± 0.0085	0.0045 ± 0.005	0.0025 ± 0.021
